Patent publication US20130205449A1, “Methods and Compositions for Production of Triploid Sterile Plants” (University of Connecticut, priority 2011, published 2013)

Experiments:
Type in all cases: cell-based, Euonymus alatus
[1] = tested on: E. alatus ‘Compactus’ immature endosperm explants; assay: Callus induction from immature endosperm explants; conditions: in combination with the same concentration of BA
Experimental: (§1) Except for rooting, all the media described herein were composed of MS salts (Murashige and Skoog, 1962) with 100 mg/L myo-inositol, 2.0 mg/L glycine, 1.0 mg/L thiamine-HCl, 0.5 mg/L nicotinic acid, 0.5 mg/L pyridoxine-HCl, 0.3 g/L casein hydrolysate, 0.5 g/L 2-(Nmorpholino) ethanesulfonic acid, 30.0 g/L sucrose, and 7.0 g/L agar. The pH of all culture media was adjusted to 5.8 with KOH or HCl before addition of agar. All media were autoclaved at 121° C. for 20 minutes, and all the cultures, except for those specifically mentioned, were maintained at 23±2° C. under 35 to 45 μmol/m^2s light provided by white cool fluorescent tube lamps over a 16-hour photoperiod.
Endosperm tissues with seedcoats and embryos completely removed were used for triploid callus induction (FIG. 1A). […]
Seed coats and embryos were removed, and the immature endosperm explants were cultured in disposable petri dishes (90×20 mm) containing MS medium supplemented with different combinations of four concentrations of BA (2.22, 4.44, 8.88, and 17.76 μM), three concentrations of NAA (2.69, 5.38, and 10.76 μM), and two concentrations of 2,4-dichlorophenoxy-acetic acid (2,4-D) (2.26 and 9.04 μM) to induce callus formation. […] Callus formation data were recorded at Week 12 of culture, and mean number of immature endosperm explants forming calli was calculated based on three replicates for each treatment. […]

[2] = tested on: immature endosperm-derived calli of E. alatus ‘Compactus’; assay: Shoot bud induction from immature endosperm-derived calli; conditions: zeatin at 9.13 or 18.26 μM, kinetin at 9.30 or 18.60 μM, in the presence of 0.49 μM IBA
Experimental: as §1
After 12 weeks of culture, compact, greenish calli formed on six callus induction media supplemented with 2.22, 4.44, or 8.88 μM BA and 2.69 or 5.38 μM NAA were cut into pieces (approximately 0.5 cm×0.5 cm in size) and transferred to the petri dishes containing shoot induction media supplemented with 4.44 or 13.32 μM BA, 9.13 or 18.26 μM zeatin, and 9.30 or 18.60 μM kinetin plus 0.49 μM IBA or 0.57 μM indole-3-acetic acid (IAA). Callus segments also were cultured on hormone free MS medium as a control. […] Bud (shoot bud) formation was recorded at Week 8 of culture. Bud induction rates were calculated by dividing the number of calli forming shoot buds by the number of calli cultured. […]

[3] = tested on: shoots from embryo or endosperm-derived calli; assay: Rooting of regenerated shoots
Experimental: After shoot buds were formed from embryo or endosperm-derived calli, they were transferred together with their callus explants into Magenta boxes containing the MS medium supplemented with 4.44 μM BA and 0.49 μM IBA for further growth. When the shoots grew to 1 to 2 cm in height, they were excised from callus tissues and cultured on root induction Medium I, which included half strength WPM (Lloyd and McCown, 1980, Proc. Intl. Plant Prop. Soc., 30:421-427) with 2% sucrose, 0.04% ammonium nitrate, 0.4% agar, 0.14% phytagel (a blended agar and phytagel medium was used to produce a totally transparent medium so that initiation and growth of roots could be easily monitored), and 4.9 μM IBA (Clements, 2007, In vitro induction of polyploidy, rooting, and overcoming the dormancy limitations of Euonymus alatus ‘Compactus,” MS Thesis, Univ. of. Conn., p. 536)). Two weeks later, the shoots were transferred onto rooting Medium II (Clements, 2007), which was IBA-free rooting Medium I with 2 g/L activated charcoal (Kang et al., 2009). The pH of the rooting media was adjusted to 5.2 with KOH or HCl before the addition of gelling agents. The root cultures were transferred to fresh medium every four weeks. […]

O=C(O)COc1ccc(Cl)cc1Cl [2,4-D, 2,4-dichlorophenoxy-acetic acid]
Effectiveness in callus induction compared with NAA [1]: less effective in callus induction than NAA

c1coc(CNc2ncnc3[nH]cnc23)c1 [kinetin]
Bud formation [2]: failed to induce bud formation

O=C(O)CCCc1c[nH]c2ccccc12 [IBA, indole-3-butyric acid]
Shoots developed into healthy plants with well-developed roots ([3]; Medium I with 4.9 μM IBA two weeks, then IBA-free Medium II with 2 g/L activated charcoal, within 10 weeks of culture): 85% | Shoots rooted ([3]; WPM with 4.9 μM IBA for two weeks, then hormone-free WPM with 2.0 g/L activated charcoal for four weeks): Eighty five percent

C/C(=C\CNc1ncnc2[nH]cnc12)CO [zeatin]
Bud formation [2]: failed to induce bud formation
